Four compounds from patent publication US4307094A, “Triazolopyridazine derivatives” (Hoffmann-La Roche Inc., priority 1979, dated 1981) can be followed below.

In this experiment the target is T1, angiotensin converting enzyme (Oryctolagus cuniculus, UniProt P12822).
T1 sequence (P12822 34-1310): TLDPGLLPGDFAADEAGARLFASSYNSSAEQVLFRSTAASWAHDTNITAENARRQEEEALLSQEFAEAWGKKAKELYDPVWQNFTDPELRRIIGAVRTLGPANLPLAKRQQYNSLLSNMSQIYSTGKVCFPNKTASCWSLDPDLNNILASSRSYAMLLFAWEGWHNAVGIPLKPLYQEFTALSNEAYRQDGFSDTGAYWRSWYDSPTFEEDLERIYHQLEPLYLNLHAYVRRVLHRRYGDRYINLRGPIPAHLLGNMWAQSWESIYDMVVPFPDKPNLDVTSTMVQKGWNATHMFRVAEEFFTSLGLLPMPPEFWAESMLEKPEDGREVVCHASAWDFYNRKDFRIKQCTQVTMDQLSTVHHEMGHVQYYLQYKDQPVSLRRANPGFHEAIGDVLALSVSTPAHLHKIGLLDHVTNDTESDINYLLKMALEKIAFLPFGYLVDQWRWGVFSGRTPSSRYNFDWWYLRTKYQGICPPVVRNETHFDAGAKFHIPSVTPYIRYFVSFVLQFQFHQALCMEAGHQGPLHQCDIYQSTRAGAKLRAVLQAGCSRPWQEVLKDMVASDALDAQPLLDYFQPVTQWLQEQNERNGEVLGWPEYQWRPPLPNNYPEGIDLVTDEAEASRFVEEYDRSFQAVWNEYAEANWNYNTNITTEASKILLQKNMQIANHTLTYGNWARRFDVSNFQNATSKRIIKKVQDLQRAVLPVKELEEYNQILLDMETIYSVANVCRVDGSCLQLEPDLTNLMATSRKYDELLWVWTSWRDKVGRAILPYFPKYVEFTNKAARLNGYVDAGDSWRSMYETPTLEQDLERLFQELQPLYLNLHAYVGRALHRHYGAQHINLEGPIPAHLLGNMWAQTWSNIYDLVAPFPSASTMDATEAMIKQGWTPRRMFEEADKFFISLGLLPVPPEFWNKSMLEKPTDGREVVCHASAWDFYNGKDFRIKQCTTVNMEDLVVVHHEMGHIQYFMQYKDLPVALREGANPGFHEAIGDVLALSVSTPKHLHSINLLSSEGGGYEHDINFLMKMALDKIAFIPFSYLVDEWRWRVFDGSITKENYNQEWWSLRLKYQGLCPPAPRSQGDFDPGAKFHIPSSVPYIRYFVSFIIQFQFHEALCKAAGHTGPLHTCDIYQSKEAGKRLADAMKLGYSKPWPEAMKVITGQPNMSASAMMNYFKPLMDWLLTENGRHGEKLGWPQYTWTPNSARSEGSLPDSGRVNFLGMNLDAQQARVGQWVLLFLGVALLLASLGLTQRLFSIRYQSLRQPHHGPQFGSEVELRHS
The experiment is described as follows: inhibition of angiotensin converting enzyme in vitro (cleavage of hippuryl-histidyl-leucine). Format: biochemical. Particulars: substrate hippuryl-histidyl-leucine 2 mM, potassium phosphate buffer pH 8.3 (100 mM), NaCl 300 mM, 25 minutes, 37° C. As for the experimental part:
The activity of the present triazolopyridazine derivatives in inhibiting angiotensin converting enzyme in vitro can be determined by the following test.
The method used is based on the method of Cushman and Cheung (Biochem. Pharmacol., 20, 1637-1648) incorporating the modifications introduced by Hayakari et al. (Anal. Biochem., 84, 361-369). The substrate (hippuryl-histidyl-leucine, 2 mM) is incubated with angiotensin converting enzyme in the presence or absence of various concentrations of test substance in potassium phosphate buffer (pH 8.3; 100 mM) containing sodium chloride (300 mM) for 25 minutes at 37° C. (total […] 500 μl). The reaction is terminated by the addition of 3 ml of potassium phosphate buffer (pH 8.3; 200 mM) at 0° C. 2,4,6-trichloro-s-triazine (3%) in 1.5 ml of dioxan is added, and the mixture is agitated until the yellow chromophore has developed fully. The samples are then centrifuged to remove any precipitate which has formed. The yellow chromophore formed by the reaction of the 2,4,6-trichloro-s-triazine with free hippuric acid is measured spectrophotometrically at 382 nm. IC50 values are defined as the concentration of test substance which reduces by 50% the cleavage of hippuryl-histidyl-leucine by angiotensin converting enzyme under the aforementioned conditions.
As for `O=C(O)CCn1c(=O)n2n(c1=O)C(C(=O)O)C=CC2` (stereo not shown) [Compound A, 5-carboxy-2,3,5,8-tetrahydro-1,3-dioxo-1H-1,2,4-triazolo[1,2-a]pyridazine-2-propionic acid], half-maximal inhibition (IC50) required 18 µM.

`NC(=O)CCn1c(=O)n2n(c1=O)C(C(=O)O)C=CC2` (stereo not shown) [Compound B, 2-(2-carbamoylethyl)-2,3,5,8-tetrahydro-1,3-dioxo-1H-1,2,4-triazolo[1,2-a]-pyridazine-5-carboxylic acid]: half-maximal inhibition (IC50) was put at 65 µM.

As for `O=C(CCn1c(=O)n2n(c1=O)C(C(=O)O)C=CC2)NO` (stereo not shown) [Compound C, 2-[2-(N-hydroxycarbamoyl)ethyl]-2,3,5,8-tetrahydro-1,3-dioxo-1H-1,2,4-triazolo[1,2-a]pyridazine-5-carboxylic acid], the IC50 (commonly the point on the concentration scale where inhibition reaches its midpoint) was 3.3 µM. In the case of `O=C(O)C1C=CCn2c(=O)n(CCS)c(=O)n21` (stereo not shown) [Compound D, 2,3,5,8-tetrahydro-2-(2-mercaptoethyl)-1,3-dioxo-1H-1,2,4-triazolo[1,2-a]pyridazine-5-carboxylic acid] it was 0.48 µM.
